Values quoted from earlier work in paper PMC2698789 (Pancreas, 2008).

Test system: sst 2 receptor

In the case of `C[C@@H](O)[C@@H]1NC(=O)[C@H](CCCCN)NC(=O)[C@@H](Cc2c[nH]c3ccccc23)NC(=O)[C@H](Cc2ccccc2)NC(=O)[C@@H](NC(=O)[C@H](N)Cc2ccccc2)CSSC[C@@H](C(=O)N[C@H](CO)[C@@H](C)O)NC1=O` [octreotide, Octreotide acetate], the “Receptor subtype preference among somatostatin receptors sst 1–sst 5” value is listed as “binds preferentially to sst 2”.
